These results are taken from PubChem BioAssay (NCI).

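Five concentrations, 48 hours, 96-well plates. TGI marks complete inhibition of growth.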 Bounds are passed on as bounds.

Holding throughout (assay): inhibition of tumour cell growth, NCI panel, 48 h
The subject of assay [1] is TK-10 renal.
The subject of assay [2] is OVCAR-5 ovarian.
Assay [3] concerns SF-539 CNS.
Assay [4] has as its system HOP-62 NSCLC.
Assay [5] has as its system SK-MEL-28 melanoma.
Assay [6] has as its system MALME-3M melanoma.
For assay [7], the system named is LOX IMVI melanoma.
The test system of assay [8] is OVCAR-3 ovarian.
The test system of assay [9] is BT-549 breast.
Assay [10] deals with UACC-257 melanoma.
Assay [11] relates to DU-145 prostate.
The subject of assay [12] is MCF7 breast.
Assay [13] concerns M14 melanoma.
Assay [14] has as its system U251 CNS.
For assay [15], the system named is RXF 393 renal.
Assay [16] has as its system SK-MEL-5 melanoma.
The subject of assay [17] is HCT-116 colon.
Assay [18] relates to MDA-MB-231 breast.
Assay [19] concerns HOP-92 NSCLC.
The subject of assay [20] is RPMI-8226 leukemia.

Take `Cc1nc(C)c(Cc2ccccc2)o1`: the TGI in assay [1], in [2], in [3], in [4], in assay [5] and in assay [6] was > 100 µM in each case. In addition, the TGI in [7], in assay [8], in [9], in assay [10], in [11] and in [12] was > 100 µM each time. Moreover, the TGI in [13], in assay [14], in assay [15], in assay [16], in [17] and in [18] was > 100 µM throughout.

As to `O=c1c(-c2ccc(Cl)cc2)nnc2n(Cc3ccccc3)c3ccccc3n12`, the TGI was 61.8 µM in assay [1]; > 100 µM in assay [2]; 42.6 µM in assay [19]; 37.9 µM in assay [3]; 44.9 µM in assay [4]; > 100 µM in [5]. Besides, the TGI is > 100 µM in [6]; > 100 µM in [7]; 57.2 µM in assay [9]; > 100 µM in assay [10]; > 100 µM in [11]; > 100 µM in assay [12]. The TGI in assay [13] is > 100 µM; in assay [14], 72.7 µM; in assay [15] it was 40.2 µM; in assay [16], > 100 µM; in [17], > 100 µM; in assay [18], 67.8 µM.

As to `Brc1cccc(N=NN2CCCC2)c1`, the TGI is > 100 µM in assay [1]; > 100 µM in assay [2]; > 100 µM in assay [19]; > 100 µM in assay [3]; > 100 µM in assay [4]; 58.8 µM in [20]. Moreover, the TGI in assay [7], in assay [8], in [9], in [10], in [11] and in assay [12] was > 100 µM throughout. Besides, the TGI in assay [13], in [14], in assay [15], in assay [16], in assay [17] and in assay [18] was > 100 µM in each case.

`c1ccc(/C(=N/Nc2ccccn2)c2ncccn2)cc1`: the TGI in assay [2] was > 100 µM; in assay [19], > 34.5 µM; in assay [3] it was 46 µM; in assay [4], > 42.7 µM; in assay [5], > 78.1 µM; in assay [6], 59.8 µM. The TGI was > 62.9 µM in assay [20]; > 44.3 µM in assay [8]; > 100 µM in assay [9]; > 100 µM in assay [11]; > 100 µM in [12]; 6.93 µM in assay [13]. Also, the TGI in assay [14] is > 51.6 µM; in assay [15] it was > 100 µM; in assay [16], 26.9 µM; in assay [17], > 100 µM; in assay [18], > 100 µM.

With `FC(F)(F)c1ccc2nc3n(c2c1)C(c1c(Cl)cccc1Cl)SC3` (stereo not given), the TGI is 35.4 µM in assay [1]; 30.4 µM in assay [2]; 17.7 µM in assay [19]; 33.1 µM in assay [3]; 29.8 µM in assay [4]; 29.5 µM in assay [5]. Also, the TGI in [6] was 29.9 µM; in [7], > 100 µM; in assay [8], 29.4 µM; in assay [9] it was 50.3 µM; in assay [10] it was 29.3 µM; in assay [11], 32.3 µM. In addition, the TGI is 37.9 µM in assay [12]; 30.7 µM in assay [13]; 32.6 µM in [14]; 30.9 µM in [15]; 22.4 µM in assay [17]; 37.7 µM in [18].

For `CC(=S)N=Cc1c(O)cc(C)oc1=O`, the TGI in [1], in assay [2], in assay [19], in assay [3], in [4] and in assay [20] was > 100 µM each time. Also, the TGI in assay [7], in [8], in assay [9], in assay [10], in assay [11] and in assay [12] was > 100 µM throughout. Moreover, the TGI in assay [13], in assay [14], in assay [15], in assay [16], in assay [17] and in assay [18] was > 100 µM throughout.

As to `NC(=O)C(=CNC(=S)c1ccncc1)C(N)=O`, the TGI in [1], in assay [2], in assay [19], in assay [3], in assay [4] and in assay [20] was > 100 µM each time. Moreover, the TGI in [7], in assay [8], in [9], in [10], in [11] and in assay [12] was > 100 µM throughout. In addition, the TGI in assay [13], in assay [14], in [15], in assay [16], in [17] and in assay [18] was > 100 µM in each case.

Consider `Nc1c(C(=O)c2ccc(Cl)cc2)[nH]c(NCc2ccccc2)c1C(=S)Nc1ccccc1`, for which the TGI in assay [1] turned out to be 4.25 µM; in assay [2] it was 9.16 µM; in [19] it was 9.02 µM; in [3] it was 13.8 µM; in [4], 12.9 µM; in assay [5], 3.22 µM. Also, the TGI in assay [20] came out at 4.34 µM; in assay [7], 3.19 µM; in assay [8], 20.2 µM; in assay [9], 7.06 µM; in [10] it was 3.26 µM; in assay [11], 13.1 µM. Moreover, the TGI in assay [12] is 3.08 µM; in [13] it was 3.54 µM; in [14], 3.13 µM; in assay [15], 4.16 µM; in [17], 3.31 µM; in assay [18] it was 3.91 µM.

As to `COc1cc2c(/C=C3/C(=O)Nc4ccccc43)c(Cl)[nH]c2cc1C`, the TGI in [1] is 21.7 µM; in [2], 23.7 µM; in assay [19] it was 26.6 µM; in assay [3] it was 0.225 µM; in assay [4], 26.4 µM; in assay [5], 29.6 µM. Moreover, the TGI in assay [20] is 24.9 µM; in assay [7] it was 15.4 µM; in [8] it was > 39.9 µM; in assay [9] it was 17.1 µM; in assay [10] it was > 45.8 µM; in assay [11], 1.08 µM. Besides, the TGI in assay [12] was 16.6 µM; in [13] it was 17 µM; in assay [14], 10.9 µM; in assay [15], 24 µM; in [16], 1.42 µM; in [17] it was 11 µM. Besides, the TGI in assay [18] came to 4.89 µM.

In the case of `CCNC(=O)C1CCCN1C(=O)C(CCCN=C(N)N)NC(=O)C(CC(C)C)NC(=O)C(Cc1c[nH]c2ccccc12)NC(=O)C(Cc1ccc(O)cc1)NC(=O)C(CO)NC(=O)C(Cc1c[nH]c2ccccc12)NC(=O)C(Cc1cnc[nH]1)NC(=O)C1CCC(=O)N1` (stereo not given), the TGI in assay [1], in assay [2], in [19], in assay [3], in assay [4] and in [6] was > 100 µM throughout. Besides, the TGI in assay [20], in assay [8], in assay [9], in [10], in assay [11] and in assay [12] was > 100 µM each time. In addition, the TGI in assay [13], in [14], in [15], in assay [16] and in [18] was > 100 µM in each case.

Take `Cc1nn(-c2cc(Cl)ccc2[N+](=O)[O-])c(C)c1Cl`: the TGI in [1], in assay [2], in assay [3], in assay [4], in assay [5] and in assay [6] was > 100 µM in each case. Further, the TGI in assay [20], in assay [7], in [8], in assay [9], in [10] and in assay [11] was > 100 µM throughout. For the same molecule, the TGI in [12] is > 100 µM; in [13], > 100 µM; in assay [14], > 100 µM; in assay [15], 76 µM; in [16], > 100 µM; in assay [17], > 100 µM. Also, the TGI in assay [18] is > 100 µM.

Turning to `NC(=O)c1cc2ccccc2o/c1=N/O`, the TGI in assay [1], in assay [19], in [3], in assay [4], in assay [5] and in assay [20] was > 100 µM throughout. Moreover, the TGI in [7], in assay [8], in [9], in [10], in [11] and in assay [12] was > 100 µM in each case. In addition, the TGI in assay [13], in assay [14], in [15], in assay [16], in [17] and in assay [18] was > 100 µM throughout.

For `CCC(=O)Oc1c2ccsc2c(OC(=O)CC)c2ccsc12`, the TGI stood at 5.25 µM in assay [1]; 3.35 µM in [2]; 3.98 µM in assay [19]; 0.472 µM in [3]; 2.95 µM in assay [4]; 0.353 µM in assay [5]. Further, the TGI in assay [6] worked out at 0.14 µM; in assay [9], 0.361 µM; in assay [10], 0.333 µM; in assay [11] it was 0.679 µM; in assay [12], 3.43 µM; in assay [13], 0.305 µM. Moreover, the TGI in assay [14] was determined as 1.65 µM; in assay [15], 2.69 µM; in assay [16] it was 0.216 µM; in [17], 1.79 µM; in [18], 1.27 µM.

For `c1ccc2c3c(c(N4CCOCC4)nc2c1)CCCC3`, the TGI was > 100 µM in [1]; 81.2 µM in assay [2]; > 100 µM in [19]; 61.4 µM in assay [3]; > 100 µM in [4]; > 100 µM in assay [5]. The TGI in assay [6], in assay [7], in [8], in assay [9], in assay [10] and in assay [11] was > 100 µM in each case. Moreover, the TGI is > 100 µM in assay [12]; > 100 µM in [13]; > 100 µM in assay [14]; 46.8 µM in assay [15]; 54.7 µM in assay [16]; > 100 µM in assay [17]. Further, the TGI in assay [18] is > 100 µM.

Take `O=[N+]([O-])c1ccc(NC(=S)N=Nc2c(O)[nH]c3ccc(Br)cc23)cc1`: the TGI in assay [1] amounted to 28.5 µM; in assay [2] it was 28.3 µM; in assay [19], 22.7 µM; in [3], 82.9 µM; in [4], 30.4 µM; in assay [5], 33.5 µM. Besides, the TGI came out at 20.2 µM in [6]; 22.4 µM in [7]; 21.8 µM in assay [8]; 11.1 µM in assay [9]; 29.8 µM in assay [10]; 24.2 µM in assay [11]. Moreover, the TGI stood at 22 µM in [12]; 21.9 µM in [14]; 26.5 µM in [15]; 33.4 µM in assay [16]; 18 µM in assay [17]; 32 µM in assay [18].
